According to ChEMBL document CHEMBL1201862, “PubChem BioAssay data set” (2004):
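Cells were grown in 96-well plates and exposed to each compound for 48 hours at five concentrations; endpoints were interpolated linearly between bracketing concentrations, or set to the highest concentration if not reached. GI50 is the concentration that inhibits growth by half.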 Activity calls are given as the source filed them. Cut-off read from the data, not from the text of the source: active = GI50 up to about 1.1 µM and inactive = higher.

How the values were obtained:
Experiment in all cases: DTP human tumour cell line panel, 48 h
786-0 = test system: 786-0
A498 = test system: A498
A549 = test system: A549
ACHN = test system: ACHN
CAKI-1 = test system: CAKI-1
CCRF-CEM = test system: CCRF-CEM
COLO 205 = test system: COLO 205
DU-145 = test system: DU-145
EKVX = test system: EKVX
HCC 2998 = test system: HCC 2998
HCT-116 = test system: HCT-116
HCT-15 = test system: HCT-15
HL-60 = test system: HL-60
HOP-62 = test system: HOP-62
HOP-92 = test system: HOP-92
HT-29 = test system: HT-29
Hs-578T = test system: Hs-578T
IGROV-1 = test system: IGROV-1
K562 = test system: K562
KM12 = test system: KM12
LOX IMVI = test system: LOX IMVI
M14 = test system: M14
MCF7 = test system: MCF7
MDA-MB-231 = test system: MDA-MB-231
MDA-MB-435 = test system: MDA-MB-435
MDA-N = test system: MDA-N
MOLT-4 = test system: MOLT-4
Malme-3M = test system: Malme-3M
NCI-H226 = test system: NCI-H226
NCI-H23 = test system: NCI-H23
NCI-H460 = test system: NCI-H460
NCI-H522 = test system: NCI-H522
NCI/ADR-RES = test system: NCI/ADR-RES
OVCAR-3 = test system: OVCAR-3
OVCAR-4 = test system: OVCAR-4
OVCAR-5 = test system: OVCAR-5
OVCAR-8 = test system: OVCAR-8
PC-3 = test system: PC-3
RPMI-8226 = test system: RPMI-8226
RXF 393 = test system: RXF 393
SF-268 = test system: SF-268
SF-295 = test system: SF-295
SF-539 = test system: SF-539
SK-MEL-28 = test system: SK-MEL-28
SK-MEL-2 = test system: SK-MEL-2
SK-MEL-5 = test system: SK-MEL-5
SK-OV-3 = test system: SK-OV-3
SN12C = test system: SN12C
SNB-19 = test system: SNB-19
SNB-75 = test system: SNB-75
SR = test system: SR
SW-620 = test system: SW-620
T47D = test system: T47D
TK-10 = test system: TK-10
U-251 = test system: U-251
UACC-257 = test system: UACC-257
UACC-62 = test system: UACC-62
UO-31 = test system: UO-31
BT-549 = test system: BT-549

CCNc1cc2c3c(c1)CCCN3CCC2
GI50 (786-0): 9.66 µM (inactive)
GI50 (A498): 23.3 µM (inactive)
GI50 (A549): 17.9 µM (inactive)
GI50 (ACHN): 19.6 µM (inactive)
GI50 (CAKI-1): 31.6 µM (inactive)
GI50 (CCRF-CEM): 2.38 µM (inactive)
GI50 (COLO 205): 12.1 µM (inactive)
GI50 (DU-145): 28.1 µM (inactive)
GI50 (EKVX): 4.03 µM (inactive)
GI50 (HCC 2998): 33 µM (inactive)
GI50 (HCT-116): 6.67 µM (inactive)
GI50 (HCT-15): 19.6 µM
GI50 (HL-60): 11.8 µM (inactive)
GI50 (HOP-62): 14.6 µM (inactive)
GI50 (HOP-92): 12.6 µM (inactive)
GI50 (HT-29): 6.78 µM (inactive)
GI50 (Hs-578T): 25.6 µM (inactive)
GI50 (IGROV-1): 15.6 µM (inactive)
GI50 (K562): 4.01 µM (inactive)
GI50 (KM12): 15.7 µM (inactive)
GI50 (LOX IMVI): 3.1 µM (inactive)
GI50 (M14): 26.4 µM (inactive)
GI50 (MCF7): 40.7 µM (inactive)
GI50 (MDA-MB-231): 6.93 µM (inactive)
GI50 (MDA-MB-435): 3.44 µM (inactive)
GI50 (MDA-N): 3.1 µM (inactive)
GI50 (MOLT-4): 16.9 µM (inactive)
GI50 (Malme-3M): 19.3 µM (inactive)
GI50 (NCI-H226): 20.4 µM (inactive)
GI50 (NCI-H23): 6.31 µM (inactive)
GI50 (NCI-H460): 15.1 µM (inactive)
GI50 (NCI-H522): 21 µM (inactive)
GI50 (NCI/ADR-RES): 21 µM (inactive)
GI50 (OVCAR-3): 2.32 µM (inactive)
GI50 (OVCAR-4): 13 µM (inactive)
GI50 (OVCAR-5): 21.6 µM (inactive)
GI50 (OVCAR-8): 21.2 µM (inactive)
GI50 (PC-3): 16.7 µM (inactive)
GI50 (RPMI-8226): 4.46 µM (inactive)
GI50 (RXF 393): 72.8 µM (inactive)
GI50 (SF-268): 16.9 µM (inactive)
GI50 (SF-295): 18.2 µM (inactive)
GI50 (SF-539): 20.9 µM (inactive)
GI50 (SK-MEL-28): 31.3 µM (inactive)
GI50 (SK-MEL-2): 15.3 µM (inactive)
GI50 (SK-MEL-5): 13.7 µM (inactive)
GI50 (SK-OV-3): 20 µM (inactive)
GI50 (SN12C): 2.87 µM (inactive)
GI50 (SNB-19): 16 µM (inactive)
GI50 (SNB-75): 18.1 µM (inactive)
GI50 (SR): 4.22 µM (inactive)
GI50 (SW-620): 21.3 µM (inactive)
GI50 (T47D): 18.1 µM (inactive)
GI50 (TK-10): 31.8 µM (inactive)
GI50 (U-251): 12.3 µM (inactive)
GI50 (UACC-257): 19.7 µM (inactive)
GI50 (UACC-62): 17.7 µM (inactive)
GI50 (UO-31): 41.9 µM (inactive)

C=CN(C=C)C(=O)Cn1cc(-c2ccccc2)nn1
GI50 (786-0): > 100 µM (inactive)
GI50 (A549): > 100 µM (inactive)
GI50 (ACHN): > 100 µM (inactive)
GI50 (BT-549): > 100 µM (inactive)
GI50 (CAKI-1): > 100 µM (inactive)
GI50 (CCRF-CEM): > 100 µM (inactive)
GI50 (COLO 205): > 100 µM (inactive)
GI50 (DU-145): > 100 µM (inactive)
GI50 (EKVX): > 100 µM (inactive)
GI50 (HCC 2998): > 100 µM (inactive)
GI50 (HCT-116): > 100 µM (inactive)
GI50 (HCT-15): > 100 µM
GI50 (HL-60): > 100 µM (inactive)
GI50 (HOP-62): > 100 µM (inactive)
GI50 (HOP-92): > 100 µM (inactive)
GI50 (HT-29): > 100 µM (inactive)
GI50 (IGROV-1): > 100 µM (inactive)
GI50 (K562): > 100 µM (inactive)
GI50 (KM12): > 100 µM (inactive)
GI50 (LOX IMVI): > 100 µM (inactive)
GI50 (M14): > 100 µM (inactive)
GI50 (MCF7): > 100 µM (inactive)
GI50 (MDA-MB-231): > 100 µM (inactive)
GI50 (MDA-MB-435): > 100 µM (inactive)
GI50 (MOLT-4): > 100 µM (inactive)
GI50 (Malme-3M): > 100 µM (inactive)
GI50 (NCI-H23): > 100 µM (inactive)
GI50 (NCI-H460): > 100 µM (inactive)
GI50 (NCI-H522): > 100 µM (inactive)
GI50 (NCI/ADR-RES): > 100 µM (inactive)
GI50 (OVCAR-4): 31.1 µM (inactive)
GI50 (OVCAR-5): > 100 µM (inactive)
GI50 (OVCAR-8): > 100 µM (inactive)
GI50 (PC-3): > 100 µM (inactive)
GI50 (RPMI-8226): > 100 µM (inactive)
GI50 (SF-268): > 100 µM (inactive)
GI50 (SF-295): > 100 µM (inactive)
GI50 (SF-539): > 100 µM (inactive)
GI50 (SK-MEL-28): > 100 µM (inactive)
GI50 (SK-MEL-2): > 100 µM (inactive)
GI50 (SK-MEL-5): > 100 µM (inactive)
GI50 (SN12C): > 100 µM (inactive)
GI50 (SNB-19): > 100 µM (inactive)
GI50 (SNB-75): > 100 µM (inactive)
GI50 (SR): > 100 µM (inactive)
GI50 (SW-620): > 100 µM (inactive)
GI50 (TK-10): > 100 µM (inactive)
GI50 (U-251): > 100 µM (inactive)
GI50 (UACC-257): > 100 µM (inactive)

CCOC(=O)Nn1cnnc1C
GI50 (786-0): > 100 µM (inactive)
GI50 (A498): > 100 µM (inactive)
GI50 (A549): > 100 µM (inactive)
GI50 (ACHN): > 100 µM (inactive)
GI50 (BT-549): > 100 µM (inactive)
GI50 (CAKI-1): > 100 µM (inactive)
GI50 (CCRF-CEM): > 100 µM (inactive)
GI50 (COLO 205): > 100 µM (inactive)
GI50 (EKVX): > 100 µM (inactive)
GI50 (HCC 2998): > 100 µM (inactive)
GI50 (HCT-116): > 100 µM (inactive)
GI50 (HCT-15): > 100 µM
GI50 (HOP-62): > 100 µM (inactive)
GI50 (HOP-92): > 100 µM (inactive)
GI50 (HT-29): > 100 µM (inactive)
GI50 (IGROV-1): > 100 µM (inactive)
GI50 (K562): > 100 µM (inactive)
GI50 (KM12): > 100 µM (inactive)
GI50 (LOX IMVI): > 100 µM (inactive)
GI50 (M14): > 100 µM (inactive)
GI50 (MCF7): > 100 µM (inactive)
GI50 (MDA-MB-231): > 100 µM (inactive)
GI50 (MDA-MB-435): > 100 µM (inactive)
GI50 (MDA-N): > 100 µM (inactive)
GI50 (MOLT-4): > 100 µM (inactive)
GI50 (Malme-3M): > 100 µM (inactive)
GI50 (NCI-H226): > 100 µM (inactive)
GI50 (NCI-H23): > 100 µM (inactive)
GI50 (NCI-H460): > 100 µM (inactive)
GI50 (NCI-H522): > 100 µM (inactive)
GI50 (NCI/ADR-RES): > 100 µM (inactive)
GI50 (OVCAR-3): > 100 µM (inactive)
GI50 (OVCAR-4): > 100 µM (inactive)
GI50 (OVCAR-5): > 100 µM (inactive)
GI50 (OVCAR-8): > 100 µM (inactive)
GI50 (PC-3): > 100 µM (inactive)
GI50 (RPMI-8226): > 100 µM (inactive)
GI50 (RXF 393): > 100 µM (inactive)
GI50 (SF-295): > 100 µM (inactive)
GI50 (SF-539): > 100 µM (inactive)
GI50 (SK-MEL-2): > 100 µM (inactive)
GI50 (SK-MEL-5): > 100 µM (inactive)
GI50 (SK-OV-3): > 100 µM (inactive)
GI50 (SN12C): > 100 µM (inactive)
GI50 (SNB-19): > 100 µM (inactive)
GI50 (SR): > 100 µM (inactive)
GI50 (SW-620): > 100 µM (inactive)
GI50 (T47D): > 100 µM (inactive)
GI50 (TK-10): > 100 µM (inactive)
GI50 (U-251): > 100 µM (inactive)
GI50 (UACC-257): > 100 µM (inactive)
GI50 (UACC-62): > 100 µM (inactive)
GI50 (UO-31): > 100 µM (inactive)
